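In this assay, cells in 96-well plates receive the compound at five concentrations for 48 hours. Endpoints are linearly interpolated between the surrounding concentrations. GI50 marks 50% less growth.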 Calls of active or inactive are those of the source. Cut-off read from the data, not from the text of the source: active = GI50 up to about 1.1 µM and inactive = higher.
What was measured:
Assay in all cases: inhibition of tumour cell growth, NCI panel, 48 h
[1] = tested on: SNB-19
[2] = tested on: CAKI-1
[3] = tested on: A498
[4] = tested on: SF-295
[5] = tested on: MDA-N
[6] = tested on: 786-0
[7] = tested on: OVCAR-3
[8] = tested on: SW-620
[9] = tested on: NCI/ADR-RES
[10] = tested on: OVCAR-4
[11] = tested on: A549
[12] = tested on: SNB-75
[13] = tested on: SK-MEL-5
[14] = tested on: EKVX
[15] = tested on: LOX IMVI
[16] = tested on: PC-3
[17] = tested on: T47D
[18] = tested on: SF-268
[19] = tested on: BT-549
[20] = tested on: COLO 205

| SMILES | GI50 [1] | GI50 [2] | GI50 [3] | GI50 [4] | GI50 [5] | GI50 [6] | GI50 [7] | GI50 [8] | GI50 [9] | GI50 [10] | GI50 [11] | GI50 [12] | GI50 [13] | GI50 [14] | GI50 [15] | GI50 [16] | GI50 [17] | GI50 [18] | GI50 [19] | GI50 [20] |
| --- | --- | --- | --- | --- | --- | --- | --- | --- | --- | --- | --- | --- | --- | --- | --- | --- | --- | --- | --- | --- |
| CN(C)/C=N/S(=O)(=O)c1nn2c(C=O)c(-c3ccc([N+](=O)[O-])cc3)nc2s1 | 28.6 µM (inactive) | 0.627 µM (active) | 27.6 µM (inactive) | 35.1 µM (inactive) | 2.91 µM (inactive) | 2.29 µM (inactive) | 4.11 µM (inactive) | 2.52 µM (inactive) | 8.85 µM (inactive) | 11.4 µM (inactive) | 22.8 µM (inactive) | 23.6 µM (inactive) | 3.3 µM (inactive) | 16.6 µM (inactive) | 2.93 µM (inactive) | 7.21 µM (inactive) | 5.68 µM (inactive) | 13.6 µM (inactive) | 3.79 µM (inactive) | 3.18 µM (inactive) |
| CC1(C)Cc2nc3c(cc2C(=O)C1/C=N/C(C#N)=C(\N)C#N)C(=O)C(/C=N/C(C#N)=C(\N)C#N)C(C)(C)C3 (stereo not drawn) | 4.68 µM (inactive) | 1.65 µM (inactive) | 4.17 µM (inactive) | 2.54 µM (inactive) | 2.41 µM (inactive) | 1.84 µM (inactive) | 2.77 µM (inactive) | 2.57 µM (inactive) | 6.47 µM (inactive) | 4.04 µM (inactive) | 2.6 µM (inactive) | 1.66 µM (inactive) | 2 µM (inactive) | 2.03 µM (inactive) | 2.09 µM (inactive) | 1.99 µM (inactive) | 1.32 µM (inactive) | 1.64 µM (inactive) | 2.19 µM (inactive) | 2.54 µM (inactive) |
| Cc1cc(C)c2c(=O)n(CC(O)CN3CCN(c4ncccn4)CC3)sc2n1 (stereo not drawn) | 64.3 µM (inactive) | 20 µM (inactive) | 17.4 µM (inactive) | > 100 µM (inactive) | 16 µM (inactive) | 14.5 µM (inactive) | 19.4 µM (inactive) | 19.5 µM (inactive) | 31 µM (inactive) | 18.6 µM (inactive) | 17.5 µM (inactive) | 15.1 µM (inactive) | 20.5 µM (inactive) | 16 µM (inactive) | 17.1 µM (inactive) | 18.7 µM (inactive) | 23.4 µM (inactive) | 18.6 µM (inactive) | 18.4 µM (inactive) | 19 µM (inactive) |
| Cc1ccccc1/N=C/N(C)C | 56.8 µM (inactive) | > 100 µM (inactive) | 91.6 µM (inactive) | 39.5 µM (inactive) | 37.5 µM (inactive) | 70.3 µM (inactive) | 17.7 µM (inactive) | – | > 100 µM (inactive) | 37.5 µM (inactive) | 39.6 µM (inactive) | 44.9 µM (inactive) | 17.2 µM (inactive) | 35.3 µM (inactive) | 23.8 µM (inactive) | 26.7 µM (inactive) | 34 µM (inactive) | 57.4 µM (inactive) | 85.7 µM (inactive) | 39.6 µM (inactive) |
| C[C@@H](c1ccccc1)n1c(N)c(-c2ccccn2)c2ccc([N+](=O)[O-])cc2c1=O | 35.2 µM (inactive) | 51.8 µM (inactive) | 18.5 µM (inactive) | – | 88.7 µM (inactive) | > 100 µM (inactive) | – | > 100 µM (inactive) | 26.9 µM (inactive) | 80.2 µM (inactive) | 34.9 µM (inactive) | 12.8 µM (inactive) | 25.7 µM (inactive) | – | > 100 µM (inactive) | 17.5 µM (inactive) | 43.2 µM (inactive) | > 100 µM (inactive) | 44.1 µM (inactive) | 38.2 µM (inactive) |
| c1ccc2c(c1)N[C@@H]1c3[nH]c4ccccc4c3CC[C@H]21 | 17.6 µM (inactive) | 18.2 µM (inactive) | 16.7 µM (inactive) | 13.4 µM (inactive) | 19.6 µM (inactive) | 15.1 µM (inactive) | 13.9 µM (inactive) | 17.7 µM (inactive) | 13.6 µM (inactive) | – | 18.3 µM (inactive) | 1.3 µM (inactive) | 14.3 µM (inactive) | 13.5 µM (inactive) | 16 µM (inactive) | 11.9 µM (inactive) | 16.7 µM (inactive) | 22.4 µM (inactive) | 18.8 µM (inactive) | 14.7 µM (inactive) |
| COc1ccc2c(c1)/C(=C\c1c(Cl)nc3n1CCS3)C(=O)N2 | 14.6 µM (inactive) | 7.48 µM (inactive) | 4.89 µM (inactive) | 3.72 µM (inactive) | 1.48 µM (inactive) | 7.83 µM (inactive) | 2.77 µM (inactive) | 4.94 µM (inactive) | 4.48 µM (inactive) | 11.9 µM (inactive) | 5.62 µM (inactive) | 10.8 µM (inactive) | 5.06 µM (inactive) | 18.3 µM (inactive) | 9.71 µM (inactive) | 3.36 µM (inactive) | 5.16 µM (inactive) | 13.8 µM (inactive) | 6.76 µM (inactive) | 3.14 µM (inactive) |
| NC(=S)N/N=C1\CCCCC1C(O)(C(F)(F)Cl)C(F)(F)Cl (stereo not drawn) | > 10 µM (inactive) | – | > 10 µM (inactive) | > 10 µM (inactive) | > 10 µM (inactive) | > 10 µM (inactive) | > 10 µM (inactive) | > 10 µM (inactive) | > 10 µM (inactive) | > 10 µM (inactive) | > 10 µM (inactive) | > 10 µM (inactive) | > 10 µM (inactive) | > 10 µM (inactive) | > 10 µM (inactive) | > 10 µM (inactive) | > 10 µM (inactive) | > 10 µM (inactive) | > 10 µM (inactive) | > 10 µM (inactive) |
| CCOC(=O)CO/N=C1/C(=C2/C(=O)Nc3ccccc32)Nc2ccccc21 | 10 µM (inactive) | 20.1 µM (inactive) | 15.1 µM (inactive) | 33.3 µM (inactive) | > 100 µM (inactive) | 7.5 µM (inactive) | 12.4 µM (inactive) | 34.7 µM (inactive) | > 100 µM (inactive) | 3.24 µM (inactive) | 24.5 µM (inactive) | 3.39 µM (inactive) | 49.5 µM (inactive) | 13.4 µM (inactive) | > 100 µM (inactive) | 78.7 µM (inactive) | 2.29 µM (inactive) | 27 µM (inactive) | 78.3 µM (inactive) | > 100 µM (inactive) |
| COc1cccc(-c2cc(O)c3cc(Cl)cnc3n2)c1 | 0.122 µM (active) | 0.0546 µM (active) | 0.131 µM (active) | 0.0687 µM (active) | 0.0144 µM (active) | 0.102 µM (active) | 0.0369 µM (active) | 0.0488 µM (active) | 0.0341 µM (active) | 6.17 µM (inactive) | 0.162 µM (active) | 33.5 µM (inactive) | 0.0495 µM (active) | > 16.6 µM (inactive) | 0.0687 µM (active) | 0.065 µM (active) | 30.5 µM (inactive) | 0.165 µM (active) | 2.17 µM (inactive) | 0.113 µM (active) |
| O=C1CSC(c2ccccc2)N1c1nc2cc3sc(N4C(=O)CSC4c4ccccc4)nc3cc2s1 (stereo not drawn) | 78.3 µM (inactive) | 39.5 µM (inactive) | > 100 µM (inactive) | > 100 µM (inactive) | > 64.4 µM (inactive) | > 100 µM (inactive) | 36.6 µM (inactive) | 9.95 µM (inactive) | 25.2 µM (inactive) | 60.1 µM (inactive) | 8.17 µM (inactive) | 38 µM (inactive) | 32.3 µM (inactive) | 22.1 µM (inactive) | 25.4 µM (inactive) | 48.4 µM (inactive) | 61 µM (inactive) | > 87.3 µM (inactive) | 37.6 µM (inactive) | 2.85 µM (inactive) |
| O=C(O)C1CSC2(CCCN(Cc3ccccc3)C2)N1 (stereo not drawn) | > 100 µM (inactive) | > 100 µM (inactive) | > 100 µM (inactive) | > 100 µM (inactive) | > 100 µM (inactive) | > 100 µM (inactive) | > 100 µM (inactive) | > 100 µM (inactive) | > 100 µM (inactive) | > 100 µM (inactive) | > 100 µM (inactive) | > 100 µM (inactive) | > 100 µM (inactive) | > 100 µM (inactive) | > 100 µM (inactive) | > 100 µM (inactive) | > 100 µM (inactive) | > 100 µM (inactive) | > 100 µM (inactive) | > 100 µM (inactive) |
| O=C(O)CCc1nc2c(n1Cc1ccccc1)C(=O)c1ccccc1C2=O | > 100 µM (inactive) | > 100 µM (inactive) | > 100 µM (inactive) | 59.6 µM (inactive) | 21.5 µM (inactive) | > 100 µM (inactive) | 27.9 µM (inactive) | 31.8 µM (inactive) | 59.6 µM (inactive) | > 100 µM (inactive) | 50.4 µM (inactive) | > 100 µM (inactive) | 21.2 µM (inactive) | 78.2 µM (inactive) | 27.2 µM (inactive) | 72.9 µM (inactive) | 52 µM (inactive) | 60.5 µM (inactive) | > 100 µM (inactive) | 33.9 µM (inactive) |
| O=C(O)C1SCCS1 | > 100 µM (inactive) | – | > 100 µM (inactive) | > 100 µM (inactive) | > 100 µM (inactive) | > 100 µM (inactive) | > 100 µM (inactive) | > 100 µM (inactive) | > 100 µM (inactive) | 31.8 µM (inactive) | > 100 µM (inactive) | > 100 µM (inactive) | > 100 µM (inactive) | > 100 µM (inactive) | > 100 µM (inactive) | > 100 µM (inactive) | > 100 µM (inactive) | > 100 µM (inactive) | > 100 µM (inactive) | > 100 µM (inactive) |

Reference: ChEMBL document CHEMBL1201862, “PubChem BioAssay data set” (2004)
